Results: patent US8329617B2, “Compositions and methods for synergistic manipulation of plant and insect defenses” (Plant Bioscience Limited, priority 2007, dated 2012)
Entries after “also recorded” stand apart in the source; their conditions may differ.

Assays:
[1] = system: Bemisia tabaci, GUA MIX; experiment: Glasshouse simulator trial: B. tabaci pupae protein on tomato plants treated with cis-jasmone and PBO; type: in vivo; settings: for μg (Av) Total Protein (B. tabaci pupae): simulator, ten tomato plants per treatment, ten adult whiteflies per plant, ~16 days
Experimental: (§1) In all bioassay experiments the control plants were sprayed with deionised water. Initially seven treatments were used (Table 1) to test all chemical variables. All treatments were applied hydraulically with a spray simulator after which the plants were separated according to treatment (with cis-jasmone controls being separated) and left for 2 hours prior to insect application.
(§2) Analysis of protein in each treatment was conducted using Bradford Reagent: the data were analysed using the computer programme ‘GraFit’ (Erithacus software, Berkeley). To calculate the calibration curve a single logarithmic curve was used with regression analysis taking the values of the treatment wells (averages of the three readings taken: technical replicates).
(§3) A new method for the investigation of the development of whitefly to the pupal stage on tomatoes and cotton was used. […] These were checked for protein after ˜16 days using Bradford reagent.
(§4) Adults were added to the plant 2 h after treatment, and removed after 24 h. The eggs laid were then left for 16-18 days until they reached the pupal stage. The total pupal protein on the plant was tested using the Bradford reagent.
As described above 10 adult females were released on to each tomato plant, ten/treatment and after ˜16 days pupae were removed using a scalpel blade. These were checked for total protein using Bradford reagent. Plants were put into glasshouse simulators (one/treatment) and kept at 28° C., 12 L: […] and 80% R.H.

[2] = system: Myzus persicae, US1L; experiment: Glasshouse simulator trial: M. persicae protein on pepper plants treated with cis-jasmone and PBO; type: in vivo; settings: for μg (Av) Total Protein (M. persicae): simulator, 25 pepper plants per treatment, three adult apterous aphids per plant, 7 days
Experimental: as §1, §2
To investigate developmental/fecundity effects of cis-jasmone+/−PBO (see Table 1) on Myzus persicae when applied to sweet peppers, adults were added to the plants and then using Bradford reagent, the amount of aphid protein present on the plants 7 days after treatment was measured. Esterase levels were also tested after the same interval to check for the possible induction of metabolic enzymes when using cis-jasmone. Aphids were brushed from all plants and each leaf checked individually to ensure none remained. The aphid mass for each treatment was weighed before total protein was assessed (total from all […] plants in the treatment).
Myzus persicae were applied to sweet peppers at the rate of three adults per plant. Aphids were brushed from all plants and each leaf checked individually to ensure none remained. The aphid mass for each treatment was assessed for total protein (total from all 25 plants in the treatment) using Bradford reagent. The amount of aphid protein present on the plants 7 days after treatment was measured. Plants were put into glasshouse simulators (one/treatment) and kept at 28° C., 12 L: […] and 80% R.H.

[3] = system: Myzus persicae, US1L; experiment: Bioassay: M. persicae protein on four pepper plants treated with cis-jasmone and PBO (1, 5 or 10 adults per plant); type: in vivo; settings: for Av. Total Insect Protein μg: Bioassay, M. persicae (US1L), average of weeks 1 to 3; for μg (Av) Total Protein (M. persicae): four pepper plants, 7 days
Experimental: as §1
as §2, with “replicates). […]” for “replicates).”
To investigate developmental/fecundity effects of cis-jasmone+/−PBO E on Myzus persicae when applied to sweet peppers, one adult was added to the plants. Aphids were brushed from all plants and each leaf checked individually to ensure none remained. The aphid mass for each treatment was assessed for total protein (total from all four plants in the treatment) using Bradford reagent. The amount of aphid protein present on the plants 7 days after treatment was measured.
(§5) Myzus persicae was applied to sweet peppers at the rate of five adults were added per plant. Aphids were brushed from all plants and each leaf checked individually to ensure none remained. The aphid mass for each treatment was assessed for total protein (total from all four plants in the treatment) using Bradford reagent. The amount of aphid protein present on the plants 7 days after treatment was measured (for further information see Example 3).
as §5, with “persicae were” for “persicae was”, “of ten” for “of five”, “adults” for “adults were added”

[4] = system: Bemisia tabaci, GUA MIX; experiment: Bioassay: B. tabaci pupae protein on one tomato plant treated with cis-jasmone and PBO; type: in vivo; settings: for μg (Av) Total Protein (B. tabaci pupae): one tomato plant, ten adult whiteflies, ~16 days
Experimental: as §1, §2, §3, §4

[5] = system: B. tabaci; experiment: B. tabaci pupae protein on cotton plants treated with PBO and/or microencapsulated cis-jasmone; type: in vivo, Bemisia tabaci; settings: five cotton plants per treatment, 5 adult female whiteflies per plant, ~16 days
Experimental: as §3, §4

[6] = system: Aphis gossypii; experiment: A. gossypii protein on cotton plants treated with propyl gallate and cis-jasmone; type: in vivo; settings: A. gossypii on cotton
[7] = system: whitefly (B. tabaci); experiment: Bioassay: B. tabaci pupae protein on cotton and tomato plants treated with BABA and/or PBO; type: in vivo, Bemisia tabaci; settings: 3 mM BABA root drench, PBO E spray
Experimental: In all bioassay experiments the control plants were sprayed with deionised water. Initially seven treatments were used (Table 1b) to test all chemical variables. […] Analysis of protein in each treatment was conducted using Bradford Reagent: the data were analysed using the computer programme ‘GraFit’ (Erithacus software, Berkeley). To calculate the calibration curve a single logarithmic curve was used with regression analysis taking the values of the treatment wells (averages of the three readings taken: technical replicates). Laboratory tests were undertaken to compare effects of combined and single treatments of PBO and BABA on control of aphid (M. persicae) on potato, pepper, and black mustard and whitefly (B. tabaci) on cotton and tomato. All tests included untreated and blank (water) controls, and both single and combined applications of PBO and BABA. […] Adults were added to the plant 2 days after treatment, and removed after 24 h. The eggs laid were then left for 16-18 days until they reached the pupal stage. The total pupal protein on the plant was tested using the Bradford reagent.

[8] = system: aphid (M. persicae); experiment: Bioassay: M. persicae protein on potato, pepper and black mustard plants treated with BABA and/or PBO; type: in vivo, Myzus persicae; settings: 3 adult apterous aphids per plant, 3 mM BABA root drench, PBO E spray, 7 days
Experimental: In all bioassay experiments the control plants were sprayed with deionised water. Initially seven treatments were used (Table 1b) to test all chemical variables. […] Analysis of protein in each treatment was conducted using Bradford Reagent: the data were analysed using the computer programme ‘GraFit’ (Erithacus software, Berkeley). To calculate the calibration curve a single logarithmic curve was used with regression analysis taking the values of the treatment wells (averages of the three readings taken: technical replicates). Laboratory tests were undertaken to compare effects of combined and single treatments of PBO and BABA on control of aphid (M. persicae) on potato, pepper, and black mustard and whitefly (B. tabaci) on cotton and tomato. All tests included untreated and blank (water) controls, and both single and combined applications of PBO and BABA. […] To investigate developmental/fecundity effects of BABA+/−PBO E (see Table 1) on Myzus persicae when applied to plants, adults were added to the plants and then using Bradford reagent, the amount of aphid protein present on the plants 7 days after treatment was measured. Esterase levels were also tested after the same interval to check for the possible induction of metabolic enzymes when using BABA. Aphids were brushed from all plants and each leaf checked individually to ensure none remained. The aphid mass for each treatment was weighed before total protein was assessed (total from all five plants in the treatment).

[9] = system: first instar aphids; experiment: BABA root drench concentration series, aphid population growth on brassica and potato; type: in vivo; settings: series 1-10 mM, aphids weighed after 1 week
Experimental: Using example crops of brassica [Brassica nigra] and potato [Solanum tuberosum]; BABA was added as a drench to the roots to ‘prime’ the plants in a series of concentrations (1-10 mM). The plants were artificially infested with a set number of first instar aphids (characterised as insecticide-resistant or -susceptible) and left for 1 week. At the end of this period, all aphids were removed and weighed to determine the growth of the population. This identified the optimal concentration of BABA to use to produce maximum secondary metabolites within the plant. All concentrations were lower than that which could cause direct damage to the crop. 3 mM BABA was identified as optimal for the conditions employed.

[10] = five adult apterous aphids per plant, week 1
[11] = five adult apterous aphids per plant, week 2
[12] = five adult apterous aphids per plant, week 3
[13] = one adult apterous aphid per plant, week 1
[14] = one adult apterous aphid per plant, week 2
[15] = one adult apterous aphid per plant, week 3
[16] = ten adult apterous aphids per plant, week 1
[17] = ten adult apterous aphids per plant, week 2
[18] = ten adult apterous aphids per plant, week 3

CC/C=C\CC1=C(C)CCC1=O [CJ, cis-jasmone]
Av. Total Insect Protein μg ([1]; Simulator, Bemisia tabaci (GUA MIX) on Tomato (Carousel), average of weeks 1 to 3): 0.104 µg | μg (Av) Total Protein (B. tabaci pupae) ([1]; week 1): 0.109 µg | μg (Av) Total Protein (B. tabaci pupae) ([1]; week 2): 0.102 µg | μg (Av) Total Protein (B. tabaci pupae) ([1]; week 3): 0.100 µg | Av. Total Insect Protein μg ([2]; Simulator, M. persicae (US1L) on Pepper (BellBoy), average of weeks 1 to 3): 13.842 µg | μg (Av) Total Protein (M. persicae) ([2]; week 1): 13.82 µg | μg (Av) Total Protein (M. persicae) ([2]; week 2): 13.8 µg | μg (Av) Total Protein (M. persicae) ([2]; week 3): 13.9 µg | Av. Total Insect Protein μg ([3]; 1 adult/plant): 7.690 µg | Av. Total Insect Protein μg ([3]; 5 adults/plant): 11.330 µg | Av. Total Insect Protein μg ([3]; 10 adults/plant): 25.210 µg | μg (Av) Total Protein (M. persicae) [3, 10]: 11.00 µg | μg (Av) Total Protein (M. persicae) [3, 11]: 11.99 µg | μg (Av) Total Protein (M. persicae) [3, 12]: 11.00 µg | μg (Av) Total Protein (M. persicae) [3, 13]: 11.00 µg | μg (Av) Total Protein (M. persicae) [3, 14]: 3.27 µg | μg (Av) Total Protein (M. persicae) [3, 15]: 8.80 µg | μg (Av) Total Protein (M. persicae) [3, 16]: 25.14 µg | μg (Av) Total Protein (M. persicae) [3, 17]: 25.4 µg | μg (Av) Total Protein (M. persicae) [3, 18]: 25.1 µg | Av. Total Insect Protein μg ([4]; Bioassay, Bemisia tabaci (GUA MIX), average of weeks 1 to 3): 0.167 µg | μg (Av) Total Protein (B. tabaci pupae) ([4]; week 1): 0.1 µg | μg (Av) Total Protein (B. tabaci pupae) ([4]; week 2): 0.2 µg | μg (Av) Total Protein (B. tabaci pupae) ([4]; week 3): 0.2 µg | Protein WF (Av) ([5]; week 1): 0.03 µg | Protein WF (Av) ([5]; week 2): 0.06 µg

CCCOC(=O)c1cc(O)c(O)c(O)c1 [propyl gallate, Propyl 3,4,5-trihydroxybenzoate]
effect of propyl gallate on efficacy of microencapsulated cis-Jasmone (in words) [6]: significantly (p<0.05) improves the efficacy of microencapsulated cis-Jasmone; also recorded: potentiates microencapsulated cis-Jasmone at least as well as PBO

2-(2-butoxyethoxy)ethyl 6-propylpiperonyl ether [PBO T + Acetone]
Av. Total Insect Protein μg ([3]; 1 adult/plant): 11.610 µg | Av. Total Insect Protein μg ([3]; 5 adults/plant): 20.370 µg | Av. Total Insect Protein μg ([3]; 10 adults/plant): 34.830 µg | μg (Av) Total Protein (M. persicae) [3, 10]: 22.30 µg | μg (Av) Total Protein (M. persicae) [3, 11]: 16.50 µg | μg (Av) Total Protein (M. persicae) [3, 12]: 22.30 µg | μg (Av) Total Protein (M. persicae) [3, 13]: 12.23 µg | μg (Av) Total Protein (M. persicae) [3, 14]: 12.30 µg | μg (Av) Total Protein (M. persicae) [3, 15]: 10.30 µg | μg (Av) Total Protein (M. persicae) [3, 16]: 37.68 µg | μg (Av) Total Protein (M. persicae) [3, 17]: 33.6 µg | μg (Av) Total Protein (M. persicae) [3, 18]: 33.2 µg

CC(N)CC(=O)O (stereo not drawn) [BABA, beta aminobutyric acid]
Protein WF (Av) ([7]; cotton plants, ~16 days, week 1): 0.1 µg | Protein WF (Av) ([7]; cotton plants, ~16 days, week 2): 0.2 µg | Protein WF (Av) ([7]; cotton plants, ~16 days, week 3): 0.2 µg | Protein WF (Av) ([7]; tomato plants, week 1): 0.1 µg | Protein WF (Av) ([7]; tomato plants, week 2): 0.23 µg | Protein WF (Av) ([7]; tomato plants, week 3): 0.15 µg | Protein A (Av) ([8]; five black mustard plants, week 1): 14.56 µg | Protein A (Av) ([8]; five black mustard plants, week 2): 15.10 µg | Protein A (Av) ([8]; five black mustard plants, week 3): 14.10 µg | Protein A (Av) ([8]; five pepper plants, week 1): 15.10 µg | Protein A (Av) ([8]; five pepper plants, week 2): 16.10 µg | Protein A (Av) ([8]; five pepper plants, week 3): 15.00 µg | Protein A (Av) ([8]; five potato plants, week 1): 7.80 µg | Protein A (Av) ([8]; five potato plants, week 2): 7.90 µg | Protein A (Av) ([8]; five potato plants, week 3): 8.30 µg | optimal concentration of BABA [9]: 3 mM
